# In patent US20070148660A1, “Treatment of maladaptive substance use with H-ras antagonists” (The Regents of the University of California, priority 2005, published 2007):
# Columns and labels:
# Ras = Ras activity assay (Raf-1-Ras binding domain GST-agarose), hippocampal slices; format: cell-based, mouse; conditions: 100 mM ethanol, 15 min, hippocampal slices
# Method: The treated hippocampal homogenates (250 μg) were incubated with […] of Raf-1-Ras binding domain GST-agarose for 45 min at 4° C. while rotating, as per manufacturer's instructions. […] Results were quantified by NIH Image 1.61.
# NR2B subunit = conditions: 100 mM ethanol, 15 min, hippocampal slices
# Method: (§1) Transverse hippocampal slices ([…]) were prepared from 10- to 12-week-old C57BL/6J mice. Slices were allowed to recover for 90 min in artificial cerebrospinal fluid (aCSF) saturated with 95% O2/5% CO2 containing (in mM): 126 NaCl, 1.2 KCl, 1.2 NaH2PO4, 1.2 MgCl2, 2.4 CaCl2, 18 NaHCO3, and 11 glucose. Following recovery, slices were treated with aCSF (control) or ethanol at room temperature, after which the slices were rinsed in cold aCSF, and used either for cross-linking experiments, for Ras activity assay, or for immunoprecipitation. In experiments using Tat-H-Ras DN or the Tat-peptide, the slices were pretreated with either aCSF (control) or 2 μM Tat-H-Ras DN or Tat-peptide for 2 hrs at room temperature, followed by ethanol treatments.
# (§2) Cross-linking was performed as described previously (22), with minor modifications. Following treatment, the slices were placed in cold aCSF in the presence or absence of 2 mg/ml of the cross-linking reagent BS^3 for 45 min at 4° C. while shaking. Slices were then rinsed three times with cold aCSF containing 20 mM Tris (pH 7.6), followed by sonication in cold homogenization buffer (10% SDS, 10 mM EDTA, 100 mM Tris (pH 8.0), and protease and phosphatase inhibitor cocktails). The protein concentration was determined using the BCA assay, followed by SDS-PAGE and Western blot analysis. Data are expressed as ratio of normalized surface expressed or internalized receptors to the total receptor levels.
# (§3) Proteins were separated by SDS-PAGE and blotted onto a nitrocellulose membrane. After blocking, the membranes were incubated with the specific primary antibody, followed by horseradish peroxidase-conjugated secondary antibody. Detection was obtained followed by enhanced chemiluminescent reaction (Amersham Biosciences), and processed using the STORM PhosphoImager (Amersham Biosciences). Results were quantified by NIH Image 1.61.
# NR1 subunit of the NMDAR = conditions: 100 mM ethanol, 15 min, hippocampal slices
# Method: as §1, §2, §3
# [1] = system: GluR1 subunit of the AMPAR; conditions: 100 mM ethanol, 15 min, hippocampal slices
# Method: as §1, §2, §3
# NR2A = conditions: 100 mM ethanol, 15 min, L(-tk) cells NR1+NR2A
# Method: (§4) L(−tk) were cultured on 100 mm plates. When cells reached 75% confluency, they were transfected with 5 μg of PSD95-GFP cDNA using LipofectAMINE PLUS in accordance with the manufacturer's instructions. 24 hrs after transfection, the expression of the NMDAR subunits NR1+NR2A or NR1+NR2B was induced with […] dexamethasone in DMEM containing 10% FBS, and 0.5 mM ketamine as previously described (21). After 3 days of induction, the cross-linking or immunoprecipitation studies were conducted. Homogenates were obtained as described in (17).
# as §2
# (§5) Proteins were separated by SDS-PAGE and blotted onto a nitrocellulose membrane. […] Results were quantified by NIH Image 1.61.
# [2] = system: NR2A-adaptin β2 association; assay: Co-immunoprecipitation of NR2A and adaptin β2, hippocampal slices; format: cell-based, mouse; conditions: 100 mM ethanol, 15 min
# Method: as §1
# The treated slices were homogenized in ice-cold buffer containing 1% deoxycholate, protease and phosphatase inhibitors and (in mM): 250 sucrose, 20 Tris-HCl (pH 7.5), 2 EDTA and 10 EGTA. 500 μg of the protein was diluted with 1× immunoprecipitation buffer (1% Triton X-100 and (in mM): 150 NaCl, 10 Tris HCl (pH 7.4), 1 EDTA, 1 EGTA and 0.2 sodium orthovanadate) and incubated with 5 μg of the appropriate antibody, followed by an overnight incubation at 4° C. with protein G agarose beads. […]
# as §5
# NR2B-adaptin association = conditions: 100 mM ethanol, 15 min, L(-tk) cells NR1+NR2B + PSD-95
# Method: as §4
# (§6) The treated slices were homogenized in ice-cold buffer containing 1% deoxycholate, protease and phosphatase inhibitors and (in mM): 250 sucrose, 20 Tris-HCl (pH 7.5), 2 EDTA and 10 EGTA. 500 μg of the protein was diluted with 1× immunoprecipitation buffer (1% Triton X-100 and (in mM): 150 NaCl, 10 Tris HCl (pH 7.4), 1 EDTA, 1 EGTA and 0.2 sodium orthovanadate) and incubated with 5 μg of the appropriate antibody, followed by an overnight incubation at 4° C. with protein G agarose beads. The beads were extensively washed, re-suspended in 2× sample buffer and boiled for 5-10 min. The samples were then subjected to SDS-PAGE followed by Western blotting with the appropriate antibodies.
# as §5
# [3] = system: NR2A-adaptin β2 association; conditions: 100 mM ethanol, 15 min, L(-tk) cells NR1+NR2A + PSD-95
# Method: as §4, §6, §5
structure (smiles),measurement,setting,value
CCO [ethanol],increase of Ras-GTP levels over the control,Ras,at least 2 fold
same,membranal localization of the NR2B subunit,NR2B subunit,did not alter
same,surface expression of the NR1 subunit,NR1 subunit of the NMDAR,no change
same,surface expression of the GluR1 subunit,[1],no change
same,internalized pool of NR2A,NR2A,increase
same,association of adaptin β2 with NR2A and vice-versa,[2],significantly increased
same,NR2B-adaptin association,NR2B-adaptin association,no change
same,association of NR2A with adaptin β2,[3],increase
